Assays:
[1] = test system: endothelium-denuded rat small mesenteric artery; assay: Vasorelaxation of endothelium-denuded rat small mesenteric artery; settings: logistic fit; for EC50: Rattus norvegicus, precontracted with methoxamine
Protocol: FIG. 17 is a graph showing vasorelaxation of endothelium-denuded rat small mesenteric artery preparations by MitoSNAP and SNAP. To measure vessel relaxation in endothelium-denuded rat mesenteric artery male Wistar rats (250-350 g) were anesthetized with sodium pentobarbitone (60 mg/kg ip Sagatal, Rhone Merieux, Harlow, Essex UK). The mesentery was removed and placed in ice-cold, gassed (95% O2/5% CO2) Krebs-Henseleit buffer. […] Vessels were maintained at 37° C. in Krebs-Henseleit solution containing indomethacin (10 μM) and bubbled with 95% O2/5% CO2 and were allowed to equilibrate under zero tension for 60 min. After equilibration vessels were normalized to a tension equivalent that generated at 90% of the diameter of the vessel at 100 mm Hg^3. Vessels were precontracted with methoxamine and then sequential cumulative additions of test compounds were made to relax the vessels shielded from direct light. Relaxation of muscle tone are expressed as a percentage of relaxation of the initial tone. Data are means of four determination of MitoNAP and MitoSNAP and of 6 for SNAP. Data from the dose-response curves were fitted to a logistic curve, with the following parameters: […]

rat thoracic aorta = assay: Relaxation of pre-contracted rat thoracic aorta (myograph); settings: for EC50: pre-contracted rat thoracic aorta, read-out: EC50 blood vessel relaxation
Protocol: FIG. 16 is a series of graphs showing the vasodilatory and tissue protective effects of MitoSNAP. (a) Dose-response curves for the effect of MitoSNAP and related compounds on blood vessel relaxation. The effects of intact or decomposed MitoSNAP and SNAP on pre-contracted rat thoracic aorta mounted in a myograph were determined Data represent means±sem. For MitoSNAP n=8 from experiments on two independent rat aorta preparations. For decomposed MitoSNAP and SNAP experiments the data (n=4) are from one aorta preparation. (b) EC50 for the effect of MitoSNAP and SNAP on blood vessel relaxation. The EC50 values were determined from experiments shown in (a) above. ***p<0.001 by Student's unpaired t-test. (c & d) MitoSNAP protects against I/R injury in Langendorff-perfused mouse hearts. Hearts from C57BL6 mice were Langendorff perfused and subjected to 25 min global normothermic ischemia followed by 1 h of reperfusion. MitoSNAP or MitoNAP (100 nM final), or vehicle carrier, was added via an infusion port above the aortic cannula during reperfusion. Hearts were then stained with 2,3,5-triphenyltetrazolium chloride (TTC) to visualize infarct. (c) Protection of heart function by MitoSNAP during I/R injury. Left ventricular contractile function was recorded throughout the I/R protocol.
Sprague-Dawley rats (male 250-350 g) were anesthetized by intraperitoneal injection of ketamine and xylazine (100 and 16 mg/kg, respectively) and thoracic aortas were excized and placed in Krebs-Henseleit buffer (pH 7.3) at 37° C. […] The concentrations of MitoSNAP and SNAP were calculated using ε=950 M^−1.cm^−1 and 1168 M^−1.cm^−1 at 340-344 nm respectively in PBS supplemented with 10 μM DTPA.
The uptake of MitoSNAP into mitochondria within vascular tissue and the subsequent NO^• release may make MitoSNAP a potent vasodilator. This was evaluated by determining whether MitoSNAP could relax the smooth muscle in blood vessel walls. […]

Structure (SMILES)	EC50 [1]	max. relaxation of induced tone [1]	slope function (Hill slope) [1]	EC50 (rat thoracic aorta)	vasodilator effect after degradation of the SNO moiety (rat thoracic aorta; pretreated (light) to degrade SNO)
CC(=O)NC(C(=O)NCCCCC[P+](c1ccccc1)(c1ccccc1)c1ccccc1)C(C)(C)SN=O.CS(=O)(=O)[O-] (stereo not drawn) [MitoSNAP, [5-(2-acetylamino-3-methyl-3-nitrosothio-butyrylamino)-penty1]-triphenylphosphonium methanesulfonate]	16.5 ± 1.1 nM	96±1%	1.3±0.1	4.5 nM	ineffective
CC(=O)NC(C(=O)O)C(C)(C)SN=O (racemic) [SNAP, S-nitroso-N-acetyl-DL-penicillamine, reference compound]	5.2 ± 0.5 nM	92±2%	1.0±0.1	19.5 nM	

Reference: patent US9045505B2, “Nitric oxide donors” (University of Otago, priority 2006, dated 2015)
